Literature values as cited in patent US20120088773A1, “Circadian rhythm modulation” (priority 2010, published 2012).
Blank lines part the entries; values can stand above or below the compound they belong to.

What was measured:
[1] = tested on: dopamine D(2) receptor; settings: 200 mg oral caffeine compared to oral placebo
[2] = tested on: D2 dopamine-mediated rotational behavior; settings: prior administration, dopamine-depleted rats
[3] = according to the CDC

water solubility: very water soluble
Structure (SMILES): CC(=O)N[C@@H](Cc1ccc(O)cc1)C(=O)O [N-acetyl-L-tyrosine]

ventral striatal [(11)C]raclopride binding potential [1]: trend-level increase
decrease in midline thalamic binding potential ([1]; p<0.001): 12%
Structure (SMILES): Cn1c(=O)c2c(ncn2C)n(C)c1=O [caffeine]
D2 dopamine-mediated rotational behavior [2]: can sensitize D2 dopamine-mediated rotational behavior

Structure (SMILES): C=C1CC[C@H](O)C/C1=C/C=C1\CCC[C@]2(C)[C@@H]([C@H](C)CCCC(C)C)CC[C@@H]12 [vitamin D3, cholecalciferol]
half-life [3]: 24 to 48 h
